Results reported in publication PMC3242765, “Inhibitors of Alphavirus Entry and Replication Identified with a Stable Chikungunya Replicon Cell Line and Virus-Based Assays” (PLoS ONE, 2011).
Where a name gives a salt, the structure may show the parent alone. Read-outs that look alike come from different tables or passages of the source.

What was measured:
SFV-Rluc [1] = conditions: for IC50: read-out: SFV IC50
SFV-Rluc [2] = assay: microbe, parasite or virus in culture; conditions: Semliki Forest virus, BHK, 14 h, read-out: SFV IC50
BHK cells = assay: Cell viability ATP assay, BHK cells; assay type: cell-based, hamster; conditions: read-out: Cell viability IC50
SFV [3] = assay: CPE reduction assay, SFV (WST-1); assay type: cell-based, Semliki Forest virus (SFV); conditions: read-out: SFV IC50 (CPE reduction)
SINV = assay: CPE reduction assay, SINV (WST-1); assay type: cell-based, Sindbis virus (SINV); conditions: read-out: SINV IC50 (CPE reduction)
SFV [4] = assay: Viral yield analysis using a plaque assay; assay type: cell-based, Semliki Forest virus (SFV); conditions: BHK cells, MOI 0.01, 50 µM compound, 16 h; untreated control 1.4×10^9 PFU/ml
CHIKV replicon = assay: microbe, parasite or virus in culture; assay type: cell-based, Chikungunya virus (CHIKV)
SFVts9-Rluc = assay type: cell-based, Semliki Forest virus (SFV)
CHIKV-Rluc = assay: microbe, parasite or virus in culture; assay type: cell-based, Chikungunya virus (CHIKV); conditions: read-out: CHIKV-Rluc IC50
[5] = Mesocricetus auratus, BHK, 48 h
[6] = Semliki Forest virus, BHK, 22 h
[7] = ATP assay, 48 h exposure of BHK cells

Compound	SI (selectivity index) (SFV-Rluc [1])	IC50 (SFV-Rluc [2]) [µM]	IC50 (BHK cells; [5]) [µM]	SFV yield (SFV [4])	SFV replication % left (surviving fraction, remaining percentage of SFV replication) (SFV-Rluc [1]) [%]	CHIKV replicon % left (CHIKV replicon) [%]	also measured
CCCOC(=O)c1cc(O)c(O)c(O)c1 [Propyl gallate]	5.8	17.9	103				
C#C[C@]1(O)CC[C@H]2[C@@H]3CCc4cc(O)ccc4[C@H]3CC[C@@]21C [17-Ethinylestradiol]	>21.1	9.5	> 200	9.0×10^8 PFU/ml			IC50 (SFV [3]; [6]): 63 µM; IC50 (SINV; Sindbis virus, BHK, 24 h): 56.8 µM
O=C(O)c1ccc(O)c(O)c1 [Protocatechuic acid]	>25.0	8	> 200	2.4×10^9 PFU/ml	21.1	105.4	IC50 (SFV [3]; [6]): > 200 µM; IC50 (SINV; Sindbis virus, BHK, 24 h): > 200 µM
CC1=CC(=O)c2ccccc2C1=O [Menadione]	2.8	7.8	21.9				
Oc1cccc(O)c1O [Pyrogallol]	>10.7	18.7	> 200	1.1×10^9 PFU/ml	22.7	89.2	IC50 (SFV [3]; [6]): > 200 µM; IC50 (SINV; Sindbis virus, BHK, 24 h): > 200 µM
CCN(CC)C(C)CN1c2ccccc2Sc2ccccc21 (stereo not drawn) [Ethopropazine]	10.4	16	167	8.1×10^8 PFU/ml			Effect on SFV entry (Rluc activity) (SFVts9-Rluc): decreased the Rluc activity; IC50 (SFV [3]; [6]): 17.1 µM; IC50 (SINV; Sindbis virus, BHK, 24 h): 21.4 µM; IC50 (CHIKV-Rluc; Chikungunya virus, BHK, 16 h): 61.5 µM
O=c1cc(-c2ccccc2)oc2c1ccc1ccccc12 [Alphanaphtoflavone]							IC50 (SFV-Rluc [1]): 24.1 µM; IC50 (BHK cells; [7]): > 200 µM
COc1c2ccoc2cc2oc(=O)ccc12 [Bergapten]	>24.6	8.1	> 200	1.2×10^8 PFU/ml			IC50 (SFV [3]; [6]): 9.2 µM; IC50 (SINV; Sindbis virus, BHK, 24 h): 16.2 µM
CN(C)CCC=C1c2ccccc2COc2ccccc21 [Doxepin]				3.6×10^8 PFU/ml			
CCN(CC)c1ccc2cc(C(=O)c3cccs3)c(=O)oc2c1 [7-Diethylamino-3-thenoylcoumarin]					15.6	36.9	IC50 (SFV-Rluc [1]): 5.1 µM; IC50 (BHK cells; [7]): 39.1 µM
C[C@@H]1O[C@@H](Oc2c(-c3ccc(O)c(O)c3)oc3cc(O)cc(O)c3c2=O)[C@H](O)[C@H](O)[C@H]1O [Quercitrin]	>8.4	23.7	> 200				
CSc1ccc2c(c1)N(CCC1CCCCN1C)c1ccccc1S2 (stereo not drawn) [Thioridazine, reference compound]				6.8×10^8 PFU/ml	11.6	95.4	Effect on SFV entry (Rluc activity) (SFVts9-Rluc): decreased the Rluc activity
CN1CCC(CN2c3ccccc3Sc3ccccc32)C1 (stereo not drawn) [Methdilazine]	5.6	11.3	63.8		22.5	19.1	Effect on SFV entry (Rluc activity) (SFVts9-Rluc): decreased the Rluc activity; IC50 (CHIKV-Rluc; Chikungunya virus, BHK, 16 h): 84.5 µM
N/C(CC(O)COc1cccc2ccccc12)=N/O (stereo not drawn) [Nadoxolol]	>12.2	16.4	> 200	9.2×10^7 PFU/ml	20.8	69.2	IC50 (SFV [3]; [6]): 15.2 µM; IC50 (SINV; Sindbis virus, BHK, 24 h): 8.2 µM
CCN(CC)c1ccc2cc(-c3nc4ccccc4n3C)c(=O)oc2c1 [Coumarin 30]				5.0×10^8 PFU/ml	12.3	44.1	IC50 (SFV-Rluc [1]): 0.4 µM; IC50 (SFV [3]; BHK cells, MOI 0.01, 22 h post-infection, WST-1, 200 µM to 0.1 µM): 5.5 µM; IC50 (SINV; BHK cells, MOI 0.01, 24 h post-infection, WST-1, 200 µM to 0.1 µM): 11.8 µM; IC50 (BHK cells; [7]): 92.4 µM; IC50 (CHIKV-Rluc): 6.4 µM
OCCN1CCN(CCCN2c3ccccc3Sc3ccc(Cl)cc32)CC1 [Perphenazine]	6.2	25.1	155		10.6	88.1	Effect on SFV entry (Rluc activity) (SFVts9-Rluc): decreased the Rluc activity; IC50 (CHIKV-Rluc; Chikungunya virus, BHK, 16 h): 48.1 µM
OCCN1CCN(CCCN2c3ccccc3C=Cc3ccccc32)CC1 [Opipramol]	>10.2	19.7	> 200	2.5×10^8 PFU/ml	27.5	101.5	IC50 (SFV [3]; [6]): 25 µM; IC50 (SINV; Sindbis virus, BHK, 24 h): 31 µM
CN(C)CCCN1c2ccccc2Sc2ccc(Cl)cc21 [Chlorpromazine]		15.7	67.3				Effect on SFV entry (Rluc activity) (SFVts9-Rluc): decreased the Rluc activity; IC50 (CHIKV-Rluc; Chikungunya virus, BHK, 16 h): 39.4 µM
CC(=O)c1ccc(O)cc1 [4-Hydroxyacetophenone]	7.8	21.1	164		29.4	94.5	
O=C1O[C@H]([C@@H](O)CO)C(O)=C1O [L-ascorbic acid]					81.4	106.1	
COc1c2ccoc2cc2oc(=O)ccc12 [Bergapten, 5-Methoxypsoralen]					46.8	100.5	
O=C1NC(=O)C(c2ccccc2)(c2ccccc2)N1 [Diphenylhydantoin [phenytoin]]					66.3	78.1	
CC(C)NCC(O)c1ccc(O)c(O)c1.CC(C)NCC(O)c1ccc(O)c(O)c1.O=S(=O)(O)O (racemic) [(+/-)-Isoproterenol hemisulfate salt]					110.9	105.1	
CC(C)(C)NC[C@H](O)COc1nsnc1N1CCOCC1 [Timolol maleate]					129.1	100.6	
Cc1c(C(C)C)c(=O)n(-c2ccccc2)n1C [Propyphenazone]					50.9	81.1	
CCSc1ccc2c(c1)N(CCCN1CCN(C)CC1)c1ccccc1S2 [Thiethylperazine]	5.5	15	83.1		26.5	101.1	Effect on SFV entry (Rluc activity) (SFVts9-Rluc): decreased the Rluc activity; IC50 (CHIKV-Rluc; Chikungunya virus, BHK, 16 h): 63.8 µM
CCOc1ccc2c(c1)C(C)=CC(C)(C)N2 [Ethoxyquin]					96.4	83.6	
COc1c2occc2c(OC)c2c(=O)cc(C)oc12 [Khellin]					120.6	95.4	
